{"source": "paper PMC7414129", "about": "“Visualizing the enzyme mechanism of mevalonate diphosphate decarboxylase” (Nature Communications, 2020)", "molecules": {"B1": {"name": "MDDEF (mevalonate diphosphate decarboxylase from Enterococcus faecalis) (Enterococcus faecalis) (protein)", "chain": "MLSGKARAHTNIALIKYWGKANEEYILPMNSSLSLTLDAFYTETTVTFDAHYSEDVFILNGILQNEKQTKKVKEFLNLVRQQADCTWFAKVESQNFVPTAAGLASSASGLAALAGACNVALGLNLSAKDLSRLARRGSGSACRSIFGGFAQWNKGHSDETSFAENIPANNWENELAMLFILINDGEKDVSSRDGMKRTVETSSFYQGWLDNVEKDLSQVHEAIKTKDFPRLGEIIEANGLRMHGTTLGAVPPFTYWSPGSLQAMALVRQARAKGIPCYFTMDAGPNVKVLVEKKNLEALKTFLSEHFSKEQLVPAFAGPGIELFETKGMDK"}}, "key": {"[1]": {"molecular_target": "T1, MDDEF (mevalonate diphosphate decarboxylase from Enterococcus faecalis) (Enterococcus faecalis, UniProt Q9FD68)", "T1 construct": "gene mvaD; full-length, recombinant in E. coli BL21(DE3); N-terminal His tag removed by TEV protease (told for K187A, wild type purified similarly); residues 1-326 modelled", "T1 sequence (Q9FD68 1-331)": "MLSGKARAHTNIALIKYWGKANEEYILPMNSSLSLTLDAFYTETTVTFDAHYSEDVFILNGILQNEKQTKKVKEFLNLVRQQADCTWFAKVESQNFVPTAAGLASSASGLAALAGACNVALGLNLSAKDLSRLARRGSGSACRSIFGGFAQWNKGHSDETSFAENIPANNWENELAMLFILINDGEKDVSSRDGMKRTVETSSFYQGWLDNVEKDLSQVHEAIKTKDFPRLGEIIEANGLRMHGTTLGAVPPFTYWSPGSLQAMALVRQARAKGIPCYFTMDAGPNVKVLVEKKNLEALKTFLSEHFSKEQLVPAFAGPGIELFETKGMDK", "test": "X-ray crystal structure (soaked)", "assay_type": "binding", "details": "1.7 Å; binary complex; pH 4.6"}, "[2]": {"molecular_target": "T2, MDDEF (mevalonate diphosphate decarboxylase from Enterococcus faecalis) (Enterococcus faecalis, UniProt Q9FD68, K187A)", "T2 construct": "gene mvaD", "test": "biochemical"}, "purified protein [3]": {"substrate": "C[C@@](O)(CCOP(=O)(O)OP(=O)(O)O)CC(=O)O", "test": "purified protein", "details": "cobalt substituting for magnesium, co-substrate ATP, 100 mM HEPES pH 7.0, 100 mM KCl, 30 °C (standard assay)"}, "purified protein [4]": {"substrate": "Nc1ncnc2c1ncn2[C@@H]1O[C@H](COP(=O)(O)OP(=O)(O)OP(=O)(O)O)[C@@H](O)[C@H]1O", "test": "purified protein", "details": "cobalt substituting for magnesium, co-substrate MVAPP, 100 mM HEPES pH 7.0, 100 mM KCl, 30 °C (standard assay)"}}, "data": [{"molecule": "C[C@@](O)(CCOP(=O)(O)OP(=O)(O)O)CC(=O)O", "note": "[MVAPP, mevalonate-5-diphosphate]", "values": [{"measurement": "X-ray crystal structure (soaked)", "setting": "[1]", "value": "MDDEF-MVAPP: 6E2T"}]}, {"molecule": "Nc1ncnc2c1ncn2[C@@H]1O[C@H](CO[P@](=O)(O)O[P@](=O)(O)O[P@@](=O)(O)S)[C@@H](O)[C@H]1O", "note": "[ATPγS]", "values": [{"measurement": "Kd", "setting": "[2]", "value": "182 ± 36", "unit": "µM"}]}, {"molecule": "B1", "values": [{"measurement": "Km", "setting": "purified protein [3]", "value": "39.3 ± 4.0", "unit": "µM"}, {"measurement": "Km", "setting": "purified protein [4]", "value": "188 ± 13", "unit": "µM"}]}]}
